Experimental data as given in US4369325A, “1,3-Diaryl-2-imino-imidazolidines and compounds” (EGYT Gyogyszervegyeszeti Gyar, priority 1978, dated 1983).
Where two headings read alike, the source gives them in different places.

Assays:
[1] = test system: sodium:potassium ratio of the urine; test: saluretic / DOCA-antagonizing effect, method of Kagawa (sodium:potassium ratio of the urine); type: in vivo, rats; details: for potassium-retentive diuretic effect: in words
Description: This means that these compounds promote the excretion of sodium ions to a far greater extent than that of potassium ions, thus the sodium:potassium ratio measured in the urine is favourably high. The saluretic effect was examined on rats according to the method of Kagawa (J. Pharm. Exp. Ther. 126, 123 /1959/). The sodium:potassium ratio of the urine was decreased experimentally by introducing deoxycorticosterone acetate (DOCA) into the animals, and the DOCA-antagonizing effects of the compounds were measured. The effects of the two new compounds examined in this test were essentially the same as that of Spironolactone, utilized as reference substance.

urine excretion = test: Lipschitz test, urine excretion of rats; type: in vivo; details: for Urine: 5 hr, control 5.82
Description: Some of the compounds according to the invention also exert favourable diuretic effects.

[2] = antiphlogistic effect (test not specified); details: in vivo
[3] = in vivo
Description: (§1) 1,3-Bis(2',6'-dimethylphenyl)-2-imino-4-methyl-imidazoline fumarate is far more advantageous than Indomethacine also with regard to its toxicological properties. […] Based on the above, the new compound according to the invention can be applied in the treatment of inflammatory disorders with a far greater degree of safety than Indomethacine.

[4] = test system: carrageenin-induced plantar oedema; test: carrageenin-induced plantar oedema test; type: in vivo, rats; details: Rattus norvegicus, read-out: ED50 value, carrageenin-induced plantar oedema test
cotton granuloma = cotton granuloma test; details: in vivo
serotonine receptors = test: blocking of serotonine receptors
Description: as §1

[5] = test system: prostaglandine synthetase enzyme; test: inhibition of prostaglandine synthetase enzyme; type: biochemical
Description: as §1

adjuvant arthritis = adjuvant arthritis test; details: in vivo
histamine receptors = test: blocking of histamine receptors
Description: as §1

gastric acid secretion = test: gastric acid secretion; details: in vivo
Description: as §1

[6] = LD50 determined on rats after oral administration; details: rat, in vivo
Description: as §1

[7] = test system: isolated rat uterine horn; test: spontaneous activity of isolated rat uterine horn in vitro
[8] = test system: longitudinal smooth muscle of guinea pig ileum; test: spontaneous activity of the longitudinal smooth muscle of guinea pig ileum in vitro
[9] = first experiment, 480 μg/animal p.o. with hormone substitution (DOCA) 12.5 μg/animal s.c.
[10] = second experiment, 480 μg/animal p.o. with hormone substitution (DOCA) 12.5 μg/animal s.c.

With `CCOC(=O)NC(=S)N=C1N(c2c(C)cccc2C)CC(C)N1c1c(C)cccc1C` (centres unmarked) [1-(1',3'-Bis/2",6"-dimethylphenyl/-4'-methyl-imidazolidine-2'-ylidene)-3-carbethoxy-thiourea] the “Effects*” value [1, 9] was 1.02, the Urine (urine excretion; 25 mg/kg p.o.) was 11.16 ml/kgx5 hr and the “diuretic effect / increase of urine excretion” value (urine excretion; rats, compared with urea) was “increases the urine excretion of rats to the same degree as urea”.
For `CC1CN(c2ccc(Cl)cc2)C(=N)N1c1ccc(Cl)cc1` (centres unmarked) [1,3-Bis(4'-chlorophenyl)-2-imino-4-methyl-imidazolidine], the antiphlogistic effects [2] was “significant antiphthlogistic effects”.
In the case of `Cc1cccc(N2CC(C)N(c3ccc(Cl)cc3)C2=N)c1C` (centres unmarked) [1-(2',3'-Dimethylphenyl)-2-imino-3-(4'-chlorophenyl)-4-methyl-imidazolidine], the potassium-retentive diuretic effect [1] is reported as “also exert potassium-retentive diuretic effect, they are, however, less effective than the compounds listed in Table 2”.
In the case of `Cc1cccc(C)c1N1C(=N)N(c2c(C)cccc2C)[C@@H](C)[C@H]1C` [1,3-Bis(2',6'-dimethylphenyl)-2-imino-4,5-cis-dimethylimidazolidine], the potassium-retentive diuretic effect [1] is reported as “also exert potassium-retentive diuretic effect, they are, however, less effective than the compounds listed in Table 2”.
In the case of `Cc1cccc(C)c1N1CC(C)N(c2c(C)cccc2C)C1=N.O=C(O)/C=C/C(=O)O` (centres unmarked) [1,3-bis(2',6'-dimethylphenyl)-2-imino-4-methyl-imidazolidine fumarate], the ulcerogeneous side effect [3] is reported as “far lower than that of Indomethacine”, the ED50 ([4]; rats, oral administration) is reported as 11 mg/kg and the “activity in the cotton granuloma test” value (cotton granuloma) is reported as “considerable activity”. For the same compound, the “connection of the antiphlogistic effect with blocking of serotonine receptors” value (serotonine receptors) was “not connected with the blocking of serotonine or histamine receptors”, the “inhibition of prostaglandine synthetase enzyme” value [5] was “does not inhibit the function of prostaglandine synthetase enzyme” and the “activity in the adjuvant arthritis test” value (adjuvant arthritis) was “considerable activity”. For the same compound, the “connection of the antiphlogistic effect with blocking of histamine receptors” value (histamine receptors) was “not connected with the blocking of serotonine or histamine receptors”, the gastric acid secretion (gastric acid secretion) was “decreases gastric acid secretion to a medium degree” and the LD50 [6] was 150 mg/kg.
In the case of `CC(=O)OCC(=O)[C@H]1CC[C@H]2[C@@H]3CCC4=CC(=O)CC[C@]4(C)[C@H]3CC[C@]12C` [DOCA, deoxycorticosterone acetate, reference compound], the “Effects*” value ([1]; first experiment, DOCA alone, 12.5 μg/animal s.c.) is reported as 0.75 and the “Effects*” value ([1]; second experiment, DOCA alone, 12.5 μg/animal s.c.) is reported as 0.88.
With `CC(=O)S[C@@H]1CC2=CC(=O)CC[C@]2(C)[C@H]2CC[C@@]3(C)[C@@H](CC[C@@]34CCC(=O)O4)[C@H]12` [Spironolactone, reference compound] the “Effects*” value [1, 9] was 1.17 and the “Effects*” value [1, 10] was 1.19.
`COc1ccc2c(c1)c(CC(=O)O)c(C)n2C(=O)c1ccc(Cl)cc1` [Indomethacine, reference compound] showed an ED50 ([4]; po) of 20 mg/kg and an LD50 [6] of 20 mg/kg.
For `CCOC(=O)N=C1N(c2c(C)cccc2C)CC(C)N1c1c(C)cccc1C` (centres unmarked) [1,3-Bis(2',6'-dimethylphenyl)-2-carbethoxyimino-4-methyl-imidazolidine], the “Effects*” value [1, 10] was 1.19.
In the case of `Cc1cccc(C)c1N1CC(CC(N)=O)N(c2c(C)cccc2C)C1=N` (centres unmarked) [1,3-Bis(2',6'-dimethylphenyl)-2-imino-4-carboxamidomethyl-imidazolidine], the antiphlogistic effects [2] is reported as “significant antiphthlogistic effects”.
With `COC(=O)C1CN(c2c(C)cccc2C)C(=N)N1c1c(C)cccc1C` (centres unmarked) [Methyl 1,3-bis(2',6'-dimethylphenyl)-2-imino-imidazolidine-4-carboxylate] the potassium-retentive diuretic effect [1] was “also exert potassium-retentive diuretic effect, they are, however, less effective than the compounds listed in Table 2”.
`NC(N)=O` [Urea, reference compound] showed a Urine (urine excretion; 960 mg/kg p.o.) of 11.54 ml/kgx5 hr.
In the case of `Cc1cccc(C)c1N1CC(C(=O)O)N(c2c(C)cccc2C)C1=N` (centres unmarked) [1,3-Bis(2',6'-dimethylphenyl)-2-imino-imidazolidine-4-carboxylic acid], the antiphlogistic effects [2] is reported as “significant antiphthlogistic effects”.
With `COc1ccc(COC(=O)N=C2N(c3c(C)cccc3C)CC(C)N2c2c(C)cccc2C)cc1` (centres unmarked) [1,3-Bis(2',6'-dimethylphenyl)-2-(p-methoxy-benzyloxycarbonyl)-imino-4-methyl-imidazolidine] the potassium-retentive diuretic effect [1] was “strong potassium-retentive diuretic effect”.
With `Cc1cccc(C)c1N1CC(CCl)N(c2c(C)cccc2C)C1=N` (centres unmarked) [1,3-Bis(2',6'-dimethylphenyl)-2-imino-4-chloromethyl-imidazolidine] the antiphlogistic effects [2] was “significant antiphthlogistic effects”.
In the case of `Cc1cccc(C)c1N1CC(C)N(c2c(C)cccc2C)C1=N` (centres unmarked) [1,3-Bis(2',6'-dimethylphenyl)-2-imino-4-methylimidazolidine], the “spontaneous activity of isolated rat uterine horn” value [7] is reported as “increase the spontaneous activity”, the potassium-retentive diuretic effect [1] is reported as “also exert potassium-retentive diuretic effect, they are, however, less effective than the compounds listed in Table 2” and the “spontaneous activity of the longitudinal smooth muscle of guinea pig ileum” value [8] is reported as “increase the spontaneous activity”.
With `Cc1cccc(C)c1N1C(=N)N(c2ccc(Cl)cc2)CC1C` (centres unmarked) [1-(4'-Chlorophenyl)-2-imino-3-(2',6'-dimethylphenyl)-4-methyl-imidazolidine] the antiphlogistic effects [2] was “significant antiphthlogistic effects”.
